Experimental data as given in PubChem BioAssay AID2060904 (Molecular Pharmacology Branch, DTP, NCI, 2025).

System: 349418-098-R-PDC complex spheroid viability
Test: Anticancer human tumor 349418-098-R-PDC patient-derived lung adenocarcinoma cell line growth inhibition [RAS]
Details: for IC50: curve of first compound; for viability, T/C: stronger effect = lower value
Method in brief: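 Multi-cell-type spheroids: tumor cells plus HUVEC endothelial cells and mesenchymal stem cells. RAS-pathway inhibitors were combined with targeted agents, each dosed in half-log steps down from clinical Cmax, or from 10 microM when Cmax was unknown.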

[1] = second compound 0.000949 µM, first compound 0.0316 µM
[2] = second compound 0.000949 µM, first compound 0.1 µM
[3] = second compound 0.000949 µM, first compound 0.316 µM
[4] = second compound 0.000949 µM, first compound 1 µM
[5] = second compound 0.000949 µM, first compound 3.16 µM
[6] = second compound 0.000949 µM, first compound 10 µM
[7] = second compound 0.003 µM, first compound 0.0316 µM
[8] = second compound 0.003 µM, first compound 0.1 µM
[9] = second compound 0.003 µM, first compound 0.316 µM
[10] = second compound 0.003 µM, first compound 1 µM
[11] = second compound 0.003 µM, first compound 3.16 µM
[12] = second compound 0.003 µM, first compound 10 µM
[13] = second compound 0.00949 µM, first compound 0.0316 µM
[14] = second compound 0.00949 µM, first compound 0.1 µM
[15] = second compound 0.00949 µM, first compound 0.316 µM
[16] = second compound 0.00949 µM, first compound 1 µM
[17] = second compound 0.00949 µM, first compound 3.16 µM
[18] = second compound 0.00949 µM, first compound 10 µM
[19] = second compound 0.03 µM, first compound 0.0316 µM
[20] = second compound 0.03 µM, first compound 0.1 µM
[21] = second compound 0.03 µM, first compound 0.316 µM
[22] = second compound 0.03 µM, first compound 1 µM
[23] = second compound 0.03 µM, first compound 3.16 µM
[24] = second compound 0.03 µM, first compound 10 µM
[25] = second compound 0.0949 µM, first compound 0.0316 µM
[26] = second compound 0.0949 µM, first compound 0.1 µM
[27] = second compound 0.0949 µM, first compound 0.316 µM
[28] = second compound 0.0949 µM, first compound 1 µM
[29] = second compound 0.0949 µM, first compound 3.16 µM
[30] = second compound 0.0949 µM, first compound 10 µM
[31] = second compound 0.3 µM, first compound 0.0316 µM
[32] = second compound 0.3 µM, first compound 0.1 µM
[33] = second compound 0.3 µM, first compound 0.316 µM
[34] = second compound 0.3 µM, first compound 1 µM
[35] = second compound 0.3 µM, first compound 3.16 µM
[36] = second compound 0.3 µM, first compound 10 µM
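Further: spheroids exposed to compound for seven days before viability readout.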

Q: With `CC(=O)OC12COC1CC(O)C1(C)C(=O)C(O)C3=C(C)C(OC(=O)C(O)C(NC(=O)OC(C)(C)C)c4ccccc4)CC(O)(C(OC(=O)c4ccccc4)C21)C3(C)C` (centres undefined) + CCn1c(-c2cc(N3CCN(C)CC3)cnc2C(C)OC)c2c3cc(ccc31)-c1csc(n1)CC(NC(=O)C1CC1C)C(=O)N1CCCC(N1)C(=O)OCC(C)(C)C2 as the compound, how does the IC50 (second compound 0.000949 µM) read?
A: < 0.0316 µM

Q: And the IC50 (second compound 0.003 µM)?
A: < 0.0316 µM

Q: What about the IC50 (second compound 0.00949 µM) of the same compound?
A: < 0.0316 µM

Q: What about the IC50 (second compound 0.03 µM) of the same compound?
A: < 0.0316 µM

Q: And the IC50 (second compound 0.0949 µM)?
A: < 0.0316 µM

Q: What about the IC50 (second compound 0.3 µM) of the same compound?
A: < 0.0316 µM

Q: And the viability, T/C [1]?
A: 12.3%

Q: And the viability, T/C [2]?
A: 12.4%

Q: What about the viability, T/C [3] of the same compound?
A: 14.2%

Q: What about the viability, T/C [4] of the same compound?
A: 13.5%

Q: What about the viability, T/C [5] of the same compound?
A: 17.1%

Q: What about the viability, T/C [6] of the same compound?
A: 19.4%

Q: And the viability, T/C [7]?
A: 14.3%

Q: What about the viability, T/C [8] of the same compound?
A: 11.3%

Q: And the viability, T/C [9]?
A: 13.8%

Q: What about the viability, T/C [10] of the same compound?
A: 13.4%

Q: And the viability, T/C [11]?
A: 15.2%

Q: And the viability, T/C [12]?
A: 22.9%

Q: And the viability, T/C [13]?
A: 14.9%

Q: And the viability, T/C [14]?
A: 16.2%

Q: And the viability, T/C [15]?
A: 13.8%

Q: What about the viability, T/C [16] of the same compound?
A: 16%

Q: And the viability, T/C [17]?
A: 18.8%

Q: And the viability, T/C [18]?
A: 17.1%

Q: And the viability, T/C [19]?
A: 14.4%

Q: What about the viability, T/C [20] of the same compound?
A: 12.8%

Q: And the viability, T/C [21]?
A: 15.9%

Q: What about the viability, T/C [22] of the same compound?
A: 18%

Q: What about the viability, T/C [23] of the same compound?
A: 18%

Q: What about the viability, T/C [24] of the same compound?
A: 19.1%

Q: And the viability, T/C [25]?
A: 11.5%

Q: What about the viability, T/C [26] of the same compound?
A: 14.2%

Q: What about the viability, T/C [27] of the same compound?
A: 14.5%

Q: What about the viability, T/C [28] of the same compound?
A: 14.3%

Q: What about the viability, T/C [29] of the same compound?
A: 17.3%

Q: What about the viability, T/C [30] of the same compound?
A: 18%

Q: What about the viability, T/C [31] of the same compound?
A: 15.2%

Q: And the viability, T/C [32]?
A: 12.8%

Q: And the viability, T/C [33]?
A: 17.8%

Q: And the viability, T/C [34]?
A: 16.8%

Q: And the viability, T/C [35]?
A: 21.4%

Q: And the viability, T/C [36]?
A: 18.4%

Q: With `CCC(CC)c1cc(NC2CCC(N)C2)n2nccc2n1` (centres undefined) + CCn1c(-c2cc(N3CCN(C)CC3)cnc2C(C)OC)c2c3cc(ccc31)-c1csc(n1)CC(NC(=O)C1CC1C)C(=O)N1CCCC(N1)C(=O)OCC(C)(C)C2 as the compound, how does the IC50 (second compound 0.000949 µM) read?
A: 0.825 µM

Q: And the IC50 (second compound 0.003 µM)?
A: 1.05 µM

Q: What about the IC50 (second compound 0.00949 µM) of the same compound?
A: 1.14 µM

Q: What about the IC50 (second compound 0.03 µM) of the same compound?
A: 0.842 µM

Q: And the IC50 (second compound 0.0949 µM)?
A: 0.985 µM

Q: And the IC50 (second compound 0.3 µM)?
A: 0.986 µM

Q: What about the viability, T/C [1] of the same compound?
A: 96.1%

Q: And the viability, T/C [2]?
A: 91.7%

Q: And the viability, T/C [3]?
A: 98.7%

Q: What about the viability, T/C [4] of the same compound?
A: 40.8%

Q: And the viability, T/C [5]?
A: 2.44%

Q: What about the viability, T/C [6] of the same compound?
A: 2.65%

Q: And the viability, T/C [7]?
A: 103%

Q: And the viability, T/C [8]?
A: 106%

Q: What about the viability, T/C [9] of the same compound?
A: 96.5%

Q: What about the viability, T/C [10] of the same compound?
A: 52.7%

Q: And the viability, T/C [11]?
A: 2.69%

Q: What about the viability, T/C [12] of the same compound?
A: 2.78%

Q: And the viability, T/C [13]?
A: 94.8%

Q: And the viability, T/C [14]?
A: 94.3%

Q: What about the viability, T/C [15] of the same compound?
A: 90%

Q: And the viability, T/C [16]?
A: 56.3%

Q: What about the viability, T/C [17] of the same compound?
A: 2.15%

Q: And the viability, T/C [18]?
A: 2.27%

Q: And the viability, T/C [19]?
A: 107%

Q: And the viability, T/C [20]?
A: 103%

Q: What about the viability, T/C [21] of the same compound?
A: 94.1%

Q: And the viability, T/C [22]?
A: 42.8%

Q: What about the viability, T/C [23] of the same compound?
A: 2.26%

Q: What about the viability, T/C [24] of the same compound?
A: 2.15%

Q: And the viability, T/C [25]?
A: 119%

Q: What about the viability, T/C [26] of the same compound?
A: 103%

Q: And the viability, T/C [27]?
A: 99.8%

Q: And the viability, T/C [28]?
A: 50.7%

Q: What about the viability, T/C [29] of the same compound?
A: 2.85%

Q: And the viability, T/C [30]?
A: 2.9%

Q: And the viability, T/C [31]?
A: 116%

Q: And the viability, T/C [32]?
A: 107%

Q: What about the viability, T/C [33] of the same compound?
A: 108%

Q: And the viability, T/C [34]?
A: 49.4%

Q: And the viability, T/C [35]?
A: 2.38%

Q: What about the viability, T/C [36] of the same compound?
A: 2.44%
